In patent publication US4393225A, “AI-77 Compounds and pharmaceutically acceptable salts thereof” (Asahi Kasei Kogyo Kabushiki Kaisha, priority 1979, dated 1983):

The compounds below were run on ulcer (assay: Anti-ulcer test (restraint and water immersion ulcer in rats, i.p.)). Settings: Rattus norvegicus, ip; 25 mg/kg i.p.; read-out: % Inhibition of Ulcer.
Assay type: in vivo, Male Wistar rats
Method: The anti-ulcer and anti-edema activity of the compounds was evaluated in efficacy tests described below.
Male Wistar rats weighing about 150 g on average were not fed for 24 hours before the test. Then a solution or suspension of a predetermined concentration of the test compound in physiological saline was administered to them intraperitoneally. One hour after the administration,each rat was restrained in a net cage and submerged in a water both (21° C.) from the tail to xiphistrenun for 6 hours. Test animals were then killed (by dislocation of the cervical vertebrae), the stomach was removed and incised along the curvatura ventriculi major, and the inside wall of the stomach was pathologically examined under microscopic observation. Rats in which the occurrence of an ulceration was substantially not observed were rated O, while others were rated 0.5, 1, 2 or 3, depending on the severity of the ulcer development. The percent inhibition of ulcer was calculated by the following formula: [formula]

| SMILES | inhibition in vivo at 25 mg/kg |
| --- | --- |
| CC(=O)NC(CC(N)=O)C(O)C(O)C(=O)NC(CC(C)C)C1Cc2cccc(O)c2C(=O)O1 (stereo not shown) [VII-28-1] | 78% |
| CC(C)CC(NC(=O)C(O)C(O)C(N)CC(=O)NCc1ccc(C(C)C)cc1)C1Cc2cccc(O)c2C(=O)O1 (stereo not shown) [VII-1-38] | 94% |
| CCNC(CC(N)=O)C(O)C(O)C(=O)NC(CC(C)C)C1Cc2cccc(OC(C)=O)c2C(=O)O1 (stereo not shown) [VII-13-1] | 83% |
| CCNC(CC(N)=O)C(O)C(O)C(=O)NC(CC(C)C)C1Cc2cccc(OC(=O)CC)c2C(=O)O1 (stereo not shown) [VII-13-3] | 83% |
| CCNC(=O)CC(NC(C)=O)C(O)C(OC)C(=O)NC(CC(C)C)C1Cc2cccc(O)c2C(=O)O1 (stereo not shown) [VII-35-1] | 66% |
| CCOc1cccc2c1C(=O)OC(C(CC(C)C)NC(=O)C(O)C(O)C(CC(N)=O)NC)C2 (stereo not shown) [VII-23-1] | 89% |
| CC(C)CCCC(C)CCCC(C)CCCCNC(=O)CC(N)C(O)C(O)C(=O)NC(CC(C)C)C1Cc2cccc(O)c2C(=O)O1 (stereo not shown) [VII-1-36] | 83% |
| CNC(=O)CC(N)C(O)C(O)C(=O)NC(CC(C)C)C1Cc2cccc(O)c2C(=O)O1 (stereo not shown) [VII-1-2] | 100% |
| CCNC(CC(N)=O)C(O)C(OC)C(=O)NC(CC(C)C)C1Cc2cccc(OC(=O)C(C)C)c2C(=O)O1 (stereo not shown) [VII-18-3] | 56% |

Same assay, conditions: Rattus norvegicus, ip; 50 mg/kg i.p.; read-out: % Inhibition of Ulcer

| SMILES | inhibition in vivo at 50 mg/kg |
| --- | --- |
| CCCCOC(C(=N)NC(CC(C)C)C1Cc2cccc(OC)c2C(=O)O1)C(O)C(N)CC(=O)O (stereo not shown) [Vb-7-1] | 72% |
| CC(C)CC(NC(=O)C(O)C1OC(=O)CC1NC(=O)c1cccn1C)C1Cc2cccc(O)c2C(=O)O1 (stereo not shown) [IIIa-1-29] | 66% |
| CCCC(=O)NC1CC(=O)OC1C(OC(C)C)C(=O)NC(CC(C)C)C1Cc2cccc(OCc3ccccc3)c2C(=O)O1 (stereo not shown) [IIIa-7-11] | 33% |
| CCCC(=O)OC(C(=O)NC(CC(C)C)C1Cc2cccc(O)c2C(=O)O1)C1C=CC(=O)O1 (stereo not shown) [IVa-1-3] | 44% |
| COC(C(=N)NC(CC(C)C)C1Cc2cccc(OC(C)=O)c2C(=O)O1)C(O)C(CC(=O)O)NC(C)C (stereo not shown) [Vb-27-2] | 66% |
| C#CCNC1CC(=O)OC1C(O)C(=O)NC(CC(C)C)C1Cc2cccc(O)c2C(=O)O1 (stereo not shown) [IIIa-18-46] | 100% |
| CCCCCCCCC=CCCCCCCCC(=O)NC1CC(=O)OC1C(OCC)C(=O)NC(CC(C)C)C1Cc2cccc(OCC)c2C(=O)O1 (stereo not shown) [IIIa-7-5] | 22% |
| CCNC1CC(=O)OC1C(OC(=O)CC)C(=O)NC(CC(C)C)C1Cc2cccc(OC(=O)C(C)C)c2C(=O)O1 (stereo not shown) [IIIa-20-2] | 56% |
| CC(=O)OC(C(=O)NC(CC(C)C)C1Cc2cccc(O)c2C(=O)O1)C1OC(=O)CC1NC(=O)c1ccc(C)cc1 (stereo not shown) [IIIa-2-8] | 44% |
| Cc1ccc(COc2cccc3c2C(=O)OC(C(CC(C)C)NC(=O)C(O)C2C=CC(=O)O2)C3)cc1 (stereo not shown) [IVa-4-21] | 33% |
| CC(C)CC(NC(=O)C(O)C1OC(=O)CC1N)C1Cc2cccc(OCC3CCCCC3)c2C(=O)O1 (stereo not shown) [IIIa-13-11] | 78% |
| CCCCCCCCC=CCCCCCCCC(=O)OC(C(=O)NC(CC(C)C)C1Cc2cccc(OC(=O)CC)c2C(=O)O1)C1OC(=O)CC1N (stereo not shown) [IIIa-11-5] | 44% |
| CC(C)CC(NC(=O)C(O)C1OC(=O)CC1NC(=O)c1ccc(O)cc1)C1Cc2cccc(O)c2C(=O)O1 (stereo not shown) [IIIa-1-35] | 66% |
| COC(C(=N)NC(CC(C)C)C1Cc2cccc(OC(C)=O)c2C(=O)O1)C(O)C(N)CC(=O)O (stereo not shown) [Vb-9-1] | 66% |
| CC(C)CC(NC(=O)C(O)C1C=CC(=O)O1)C1Cc2cccc(OC(=O)CCC3CCCC3)c2C(=O)O1 (stereo not shown) [IVa-3-15] | 33% |
| CCCCCSCC(=O)NC1CC(=O)OC1C(O)C(=O)NC(CC(C)C)C1Cc2cccc(O)c2C(=O)O1 (stereo not shown) [IIIa-1-45] | 66% |
| CCOc1cccc2c1C(=O)OC(C(CC(C)C)NC(=O)C(O)C1OC(=O)CC1NC(=O)C(C)=C(C)Br)C2 (stereo not shown) [IIIa-5-77] | 44% |
| CC(C)CC(NC(=O)C(O)C1OC(=O)CC1NC(=O)C(Cl)(Cl)Cl)C1Cc2cccc(OC(=O)C(Cl)(Cl)Cl)c2C(=O)O1 (stereo not shown) [IIIa-4-9] | 33% |
| CC(C)CC(NC(=O)C(O)C1C=CC(=O)O1)C1Cc2cccc(OCC3CCCCC3)c2C(=O)O1 (stereo not shown) [IVa-4-11] | 33% |
| CCCCCSCCNC1CC(=O)OC1C(O)C(=O)NC(CC(C)C)C1Cc2cccc(OCC)c2C(=O)O1 (stereo not shown) [IIIa-22-40] | 94% |
| CCNC1CC(=O)OC1C(OC)C(=O)NC(CC(C)C)C1Cc2cccc(OC(=O)C(C)C)c2C(=O)O1 (stereo not shown) [IIIa-26-9] | 56% |
| CC(C)CC(NC(=O)C(O)C1OC(=O)CC1NC(=O)CCC1CCCC1)C1Cc2cccc(O)c2C(=O)O1 (stereo not shown) [IIIa-1-63] | 66% |
| CCCCOc1cccc2c1C(=O)OC(C(CC(C)C)NC(=O)C(O)C1OC(=O)CC1N)C2 (stereo not shown) [IIIa-13-3] | 100% |
| CCNC1CC(=O)OC1C(OCC)C(=O)NC(CC(C)C)C1Cc2cccc(OCC)c2C(=O)O1 (stereo not shown) [IIIa-24-2] | 56% |
| CC(C)CC(NC(=O)C(O)C1C=CC(=O)O1)C1Cc2cccc(OCCc3ccc4ccccc4c3)c2C(=O)O1 (stereo not shown) [IVa-4-18] | 33% |

| SMILES | inhibition in vivo at 50 mg/kg |
| --- | --- |
| CC(C)CCOc1cccc2c1C(=O)OC(C(CC(C)C)NC(=O)C(O)C1OC(=O)CC1N)C2 (stereo not shown) [IIIa-13-4] | 100% |
| CC(=O)OC(C(=O)NC(CC(C)C)C1Cc2cccc(O)c2C(=O)O1)C1OC(=O)CC1NC(=O)C1CCCO1 (stereo not shown) [IIIa-2-6] | 44% |
| CCOc1cccc2c1C(=O)OC(C(CC(C)C)NC(=O)C(O)C1OC(=O)CC1NC)C2 (stereo not shown) [IIIa-31-2] | 94% |
| CCNC(CC(=O)O)C(O)C(O)C(=N)NC(CC(C)C)C1Cc2cccc(O)c2C(=O)O1 (stereo not shown) [Vb-10-1] | 94% |
| CC(=O)N1CCC(COc2cccc3c2C(=O)OC(C(CC(C)C)NC(=O)C(O)C2C=CC(=O)O2)C3)CC1 (stereo not shown) [IVa-4-16] | 33% |
| CCOC(C(=N)NC(CC(C)C)C1Cc2cccc(OCCC(C)OC)c2C(=O)O1)C(O)C(N)CC(=O)O (stereo not shown) [Vb-9-3] | 66% |
| CCCCOC(C(=O)NC(CC(C)C)C1Cc2cccc(OC)c2C(=O)O1)C1OC(=O)CC1NC(=O)CCC (stereo not shown) [IIIa-7-10] | 33% |
| CNC1CC(=O)OC1C(O)C(=O)NC(CC(C)C)C1Cc2cccc(OC)c2C(=O)O1 (stereo not shown) [IIIa-31-1] | 94% |
| CC(C)CC(NC(=O)C(O)C1OC(=O)CC1NC(=O)CCCBr)C1Cc2cccc(O)c2C(=O)O1 (stereo not shown) [IIIa-1-31] | 66% |
| CC(C)CC(NC(=O)C(O)C1OC(=O)CC1NC(=O)C1CCCO1)C1Cc2cccc(O)c2C(=O)O1 (stereo not shown) [IIIa-1-23] | 66% |
| CCCCOC(C(=O)NC(CC(C)C)C1Cc2cccc(OC)c2C(=O)O1)C1OC(=O)CC1N (stereo not shown) [IIIa-15-1] | 56% |
| COc1cccc2c1C(=O)OC(C(CC(C)C)NC(=O)C(O)C1OC(=O)CC1N)C2 (stereo not shown) [IIIa-13-1] | 100% |
| CCCCCCCCCCCCCCCCCCOc1cccc2c1C(=O)OC(C(CC(C)C)NC(=O)C(O)C1OC(=O)CC1NC(=O)CCCCCC)C2 (stereo not shown) [IIIa-5-12] | 33% |
| CCC(=O)C(=O)NC1CC(=O)OC1C(O)C(=O)NC(CC(C)C)C1Cc2cccc(O)c2C(=O)O1 (stereo not shown) [IIIa-1-32] | 66% |
| CCOc1cccc2c1C(=O)OC(C(CC(C)C)NC(=O)C(OC)C1OC(=O)CC1NC(=O)c1ccc(OCCC(C)C)cc1)C2 (stereo not shown) [IIIa-7-9] | 22% |
| CCOc1cccc2c1C(=O)OC(C(CC(C)C)NC(=O)C(OC)C1OC(=O)CC1NC(=O)CC(C)OC)C2 (stereo not shown) [IIIa-7-7] | 33% |
| CCOc1cccc2c1C(=O)OC(C(CC(C)C)NC(=O)C(O)C1OC(=O)CC1NCCCCBr)C2 (stereo not shown) [IIIa-22-25] | 89% |
| CC(C)CC(NC(=O)C(O)C1OC(=O)CC1NC(=O)Cn1cnnn1)C1Cc2cccc(O)c2C(=O)O1 (stereo not shown) [IIIa-1-75] | 66% |
| CCCCCCCCCCCC(=O)NC1CC(=O)OC1C(O)C(=O)NC(CC(C)C)C1Cc2cccc(O)c2C(=O)O1 (stereo not shown) [IIIa-1-10] | 66% |
| CCCCCCC(=O)NC1CC(=O)OC1C(O)C(=O)NC(CC(C)C)C1Cc2cccc(O)c2C(=O)O1 (stereo not shown) [IIIa-1-8] | 66% |
| CCCCCCCCCCCCCCCCCCOc1cccc2c1C(=O)OC(C(CC(C)C)NC(=O)C(OC(C)=O)C1OC(=O)CC1NC(=O)C1CCCO1)C2 (stereo not shown) [IIIa-6-6] | 33% |
| CC(C)=CCNC1CC(=O)OC1C(O)C(=O)NC(CC(C)C)C1Cc2cccc(O)c2C(=O)O1 (stereo not shown) [IIIa-18-70] | 94% |
| CCCCCC(=O)OC(C)CCOc1cccc2c1C(=O)OC(C(CC(C)C)NC(=O)C(OC)C1OC(=O)CC1NC(=O)CCC)C2 (stereo not shown) [IIIa-7-15] | 33% |
| CCOc1cccc2c1C(=O)OC(C(CC(C)C)NC(=O)C(O)C1OC(=O)CC1NC(=O)C=C(C)C)C2 (stereo not shown) [IIIa-5-78] | 44% |
